The record followed here is ChEMBL document CHEMBL1201862, “PubChem BioAssay data set” (2004).

Among the test systems are 786-0; CAKI-1; COLO 205; DU-145; HCC 2998; HL-60; HT-29; K562; M14; NCI/ADR-RES; OVCAR-4; OVCAR-8; PC-3; SF-268; SK-OV-3; TK-10; UACC-257; UACC-62; A549.
What all share (assay): NCI anticancer screen, dose series, 48 h

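In this assay, cells in 96-well plates receive the compound at five concentrations for 48 hours. Endpoints are linearly interpolated between the surrounding concentrations. GI50 marks 50% less growth.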 Activity calls are given as the source filed them. Rule as the data show it: active = GI50 up to about 1.1 µM and inactive = higher. Bounds are passed on as bounds.

Turning to `C1=C(c2ccccc2)NC2=N[C@H]3CCCC[C@@H]3N2C1c1ccccc1` (some centres undefined), the GI50 with 786-0 is 16.9 µM (inactive); in the test on CAKI-1 it was 16.1 µM (inactive); in the test on COLO 205, 11 µM (inactive); in the test on DU-145, 16.1 µM (inactive); in the test with HCC 2998 it was 14.4 µM (inactive); in the test on HL-60, 10.3 µM (inactive). For the same molecule, the GI50 was 3.51 µM (inactive) with HT-29; 5.15 µM (inactive) with K562; 12.9 µM (inactive) in the test with M14; 12 µM (inactive) in the test with NCI/ADR-RES; 10.1 µM (inactive) in the test on OVCAR-4; 13.6 µM (inactive) in the test with OVCAR-8. The GI50 is 11.4 µM (inactive) with PC-3; 21.5 µM (inactive) with SF-268; 15.8 µM (inactive) in the test with SK-OV-3; 10.4 µM (inactive) in the test on TK-10; 14.6 µM (inactive) in the test on UACC-257; 15 µM (inactive) in the test with UACC-62.

Consider `CC(C)(C)C(=O)C(C(=O)C(C)(C)C)C(=O)C(C)(C)C`, for which the GI50 with 786-0, in the test on A549, with CAKI-1, in the test on COLO 205, in the test on DU-145 and in the test on HCC 2998 was > 100 µM (inactive) throughout. Also, the GI50 in the test on HL-60, in the test on HT-29, with K562, in the test with M14, in the test on NCI/ADR-RES and with OVCAR-4 was > 100 µM (inactive) each time. Moreover, the GI50 with OVCAR-8 is > 100 µM (inactive); in the test on PC-3, > 100 µM (inactive); with SF-268, > 100 µM (inactive); in the test on SK-OV-3, 43.5 µM (inactive); in the test on TK-10, > 100 µM (inactive); with UACC-257 it was > 100 µM (inactive).

With `CN(N)C(=O)NCCCl`, the GI50 in the test on 786-0, with A549, in the test with CAKI-1, in the test on COLO 205, with DU-145 and with HCC 2998 was > 100 µM (inactive) throughout. Further, the GI50 is > 100 µM (inactive) in the test on HL-60; > 100 µM (inactive) in the test on HT-29; > 100 µM (inactive) in the test with K562; > 100 µM (inactive) in the test on M14; 0.021 µM (active) in the test with NCI/ADR-RES; > 100 µM (inactive) in the test with OVCAR-4. Also, the GI50 in the test with PC-3, in the test on SF-268, in the test on SK-OV-3, in the test with TK-10, in the test on UACC-257 and in the test on UACC-62 was > 100 µM (inactive) in each case.

Take `Nc1ncc(Cl)c(NCC2(CO)CC(CCc3ccccc3)C2)n1` (centres undefined): the GI50 in the test with 786-0 is > 100 µM (inactive); in the test with A549, > 21.1 µM (inactive); in the test on CAKI-1, 12 µM (inactive); in the test on COLO 205 it was > 100 µM (inactive); with DU-145 it was > 100 µM (inactive); in the test with HCC 2998, > 100 µM (inactive). For the same molecule, the GI50 with HL-60 is 1.13 µM (inactive); in the test on K562, 0.321 µM (active); with M14, > 100 µM (inactive); in the test on NCI/ADR-RES, 3.61 µM (inactive); in the test on OVCAR-4 it was > 100 µM (inactive); with OVCAR-8, 44 µM (inactive). Further, the GI50 was > 100 µM (inactive) in the test on PC-3; > 100 µM (inactive) in the test on SF-268; > 100 µM (inactive) with SK-OV-3; 14.4 µM (inactive) in the test with TK-10; > 100 µM (inactive) in the test on UACC-257; > 100 µM (inactive) in the test with UACC-62.

As to `O=c1oc2cccnc2n1CCCCN1CCN(c2ccccc2)CC1`, the GI50 in the test on 786-0, in the test with A549, in the test with CAKI-1, in the test with DU-145, in the test on HCC 2998 and in the test with HL-60 was > 100 µM (inactive) each time. The GI50 in the test on HT-29, with K562, with M14, in the test on NCI/ADR-RES, in the test with OVCAR-4 and in the test with OVCAR-8 was > 100 µM (inactive) throughout. Moreover, the GI50 in the test with PC-3, in the test on SF-268, in the test on SK-OV-3, in the test on TK-10 and with UACC-257 was > 100 µM (inactive) throughout.

On to `C=[N+](CNC(=O)CNC(=O)C(Cc1ccc([N+](=O)[O-])cc1)NC(=O)OC(C)(C)C)C(=O)CNC(=O)C(Cc1ccc([N+](=O)[O-])cc1)NC(=O)OC(C)(C)C` (centres undefined), for which the GI50 is 69.5 µM (inactive) in the test with 786-0; > 100 µM (inactive) in the test with A549; > 100 µM (inactive) with CAKI-1; 58.2 µM (inactive) with COLO 205; > 100 µM (inactive) in the test with DU-145; 38.9 µM (inactive) in the test with HCC 2998. Also, the GI50 in the test on HL-60 is 13.3 µM (inactive); with HT-29, 49.1 µM (inactive); in the test with K562, 19 µM (inactive); with M14, 28.1 µM (inactive); in the test with NCI/ADR-RES it was > 100 µM (inactive); in the test with OVCAR-4, > 100 µM (inactive). The GI50 in the test with OVCAR-8 is 52.7 µM (inactive); with PC-3 it was 29.8 µM (inactive); with SF-268, 27.8 µM (inactive); in the test with SK-OV-3, > 100 µM (inactive); in the test on TK-10 it was > 100 µM (inactive); with UACC-62, 21.6 µM (inactive).

Take `C[C@@H](CC(O)C(O)C(C)(C)O)C1CCC23CC12CCC1[C@@]2(C)CCC(=O)C(C)(C)C2CC(OC2OC(CO)C(O)C(O)C2O)[C@]13C` (some centres undefined): the GI50 with 786-0, with A549, with CAKI-1, in the test with COLO 205, in the test on DU-145 and with HCC 2998 was > 10 µM (inactive) each time. Also, the GI50 in the test with HL-60, in the test with HT-29, in the test on K562, in the test on M14, in the test on NCI/ADR-RES and in the test on OVCAR-4 was > 10 µM (inactive) each time. Further, the GI50 with OVCAR-8, in the test with PC-3, in the test with SF-268, in the test on SK-OV-3, in the test with TK-10 and with UACC-62 was > 10 µM (inactive) each time.

Take `c1ccc2c(c1)ccn2CCc1c[nH]c2ccccc12`: the GI50 with 786-0, in the test on A549, in the test with CAKI-1, in the test on COLO 205, with DU-145 and in the test on HCC 2998 was > 10 µM (inactive) throughout. For the same molecule, the GI50 in the test on HL-60, with HT-29, in the test with K562, in the test with M14, with NCI/ADR-RES and in the test on OVCAR-4 was > 10 µM (inactive) throughout. The GI50 with OVCAR-8, in the test with PC-3, in the test on SF-268, with SK-OV-3, in the test on TK-10 and in the test on UACC-257 was > 10 µM (inactive) throughout. The GI50 with UACC-62 was > 10 µM (inactive).
